Measured values from publication PMC4384708, “Molecular imaging of angiogenesis after myocardial infarction by ^111In-DTPA-cNGR and ^99mTc-sestamibi dual-isotope myocardial SPECT” (EJNMMI Research, 2015).
One block for each compound: values may come before it.

Tests used:
[1] = ^99mTc-sestamibi perfusion uptake (SUV) per AHA 17 segment, in vivo dual-isotope micro-SPECT; set-up: species or system Swiss mice
Procedure: MI was induced in 10- to 12-week old male Swiss mice by ligation of the left anterior descending coronary artery (LAD) (n = 7), as previously described. The angiogenesis imaging protocol was performed 7 days after the LAD ligation. A group of non-operated male Swiss mice (n = 5) was used as control. A variable number of animals were available for analysis per experiment. For SPECT scans, seven MI mice and five control mice were used while for biodistribution purposes ≥5 MI mice and ≥4 control mice were used. Furthermore, a group of six 10- to 12-week old male Swiss mice were bilaterally, subcutaneously implanted in the flanks with Matrigel (Table 1). […] All animals were held under the guidelines of the animal care facility (Maastricht University). All animal experiments were approved by the Committee for Animal Welfare of Maastricht University.
Mice were anesthetised with isoflurane (induction 2.5%; maintenance; 1.5%), a catheter was placed in the tail vein and the animals were positioned in the micro-SPECT camera (MiLabs, Utrecht, The Netherlands).
U-SPECT-II reconstruction software version 2.38 (MiLabs, Utrecht, The Netherlands) was used to reconstruct images. ^99mTc and ^111In images were reconstructed by selecting the photopeak (PP) and background (BG) windows as indicated in Figure 1.
To allow quantification of radiotracer uptake in vivo, conversion factors (CFs) were determined for the 0.6-mm collimator system in a representative phantom (20 ml) for ^99mTc and/or ^111In. During the SPECT reconstruction, the total amount of counts was distributed over the different voxels, resulting in a counts/voxel expression for the average concentration of counts. Taking into account the voxel volume (Vv), the CFs are calculated using equation (a):a ConversionfactorMBq=ActivityconcentrationMBq/ml/SPECTcountspervoxel/Vvml
The PMOD 2.95 cardiac tool PCARD (PMOD Technologies, Zürich, Switzerland) was used to segment the heart in the 17-segment model according to the American Heart Association (AHA) guidelines. For both the ^99mTc-sestamibi and ^111In-DTPA-cNGR images, the uptake was measured for each segment and expressed as mean standardised uptake value (SUVmean) using equation (b).b SUV=SPECTcountspervoxel×CF/VvMBq/ml×Bodyweightg/InjecteddoseMBq
For body weight, we assumed that 1 g of body weight equalled 1 ml.

CD13 = settings: cNGR tripeptide vs. linear entity; cited from earlier work
Excerpt: In this study, we designed and developed a CD13 molecular imaging probe that allowed sensitive visualisation using micro-SPECT imaging. […] Thereto, the cNGR tripeptide was conjugated with diethylene triamine pentaacetic acid (DTPA), radiolabeled with ^111In and evaluated in a mouse model of myocardial infarction in combination with ^99mTc-sestamibi in dual-isotope micro-SPECT imaging. In order to determine binding spec ...

- SUV ([1]; segment 1. Basal anterior, MI mice n = 7, 7 days after LAD ligation, mean ± S.E.M.): 1.94 ± 0.36
- SUV ([1]; segment 1. Basal anterior, healthy control mice n = 5, mean ± S.E.M.): 1.87 ± 0.34
- SUV ([1]; segment 2. Basal anteroseptal, MI mice n = 7, 7 days after LAD ligation, mean ± S.E.M.): 1.72 ± 0.33
- SUV ([1]; segment 2. Basal anteroseptal, healthy control mice n = 5, mean ± S.E.M.): 1.63 ± 0.28
- SUV ([1]; segment 3. Basal inferoseptal, MI mice n = 7, 7 days after LAD ligation, mean ± S.E.M.): 1.38 ± 0.28
- SUV ([1]; segment 3. Basal inferoseptal, healthy control mice n = 5, mean ± S.E.M.): 1.54 ± 0.29
- SUV ([1]; segment 4. Basal inferior, MI mice n = 7, 7 days after LAD ligation, mean ± S.E.M.): 1.64 ± 0.24
- SUV ([1]; segment 4. Basal inferior, healthy control mice n = 5, mean ± S.E.M.): 1.77 ± 0.28
- SUV ([1]; segment 5. Basal inferolateral, MI mice n = 7, 7 days after LAD ligation, mean ± S.E.M.): 1.78 ± 0.31
- SUV ([1]; segment 5. Basal inferolateral, healthy control mice n = 5, mean ± S.E.M.): 1.68 ± 0.30
- SUV ([1]; segment 6. Basal anterolateral, MI mice n = 7, 7 days after LAD ligation, mean ± S.E.M.): 2.11 ± 0.39
- SUV ([1]; segment 6. Basal anterolateral, healthy control mice n = 5, mean ± S.E.M.): 1.95 ± 0.33
- SUV ([1]; segment 7. Mid anterior, MI mice n = 7, 7 days after LAD ligation, mean ± S.E.M.): 1.18 ± 0.26
- SUV ([1]; segment 7. Mid anterior, healthy control mice n = 5, mean ± S.E.M.): 1.80 ± 0.30
- SUV ([1]; segment 8. Mid anteroseptal, MI mice n = 7, 7 days after LAD ligation, mean ± S.E.M.): 1.73 ± 0.27
- SUV ([1]; segment 8. Mid anteroseptal, healthy control mice n = 5, mean ± S.E.M.): 1.67 ± 0.28
- SUV ([1]; segment 9. Mid inferoseptal, MI mice n = 7, 7 days after LAD ligation, mean ± S.E.M.): 1.82 ± 0.30
- SUV ([1]; segment 9. Mid inferoseptal, healthy control mice n = 5, mean ± S.E.M.): 1.80 ± 0.34
- SUV ([1]; segment 10. Mid inferior, MI mice n = 7, 7 days after LAD ligation, mean ± S.E.M.): 1.85 ± 0.31
- SUV ([1]; segment 10. Mid inferior, healthy control mice n = 5, mean ± S.E.M.): 1.72 ± 0.28
- SUV ([1]; segment 11. Mid inferolateral, MI mice n = 7, 7 days after LAD ligation, mean ± S.E.M.): 1.60 ± 0.32
- SUV ([1]; segment 11. Mid inferolateral, healthy control mice n = 5, mean ± S.E.M.): 1.71 ± 0.25
- SUV ([1]; segment 12. Mid anterolateral, MI mice n = 7, 7 days after LAD ligation, mean ± S.E.M.): 1.15 ± 0.37
- SUV ([1]; segment 12. Mid anterolateral, healthy control mice n = 5, mean ± S.E.M.): 2.03 ± 0.32
- SUV ([1]; segment 13. Apical anterior, MI mice n = 7, 7 days after LAD ligation, mean ± S.E.M.): 0.49 ± 0.10
- SUV ([1]; segment 13. Apical anterior, healthy control mice n = 5, mean ± S.E.M.): 1.64 ± 0.30
- SUV ([1]; segment 14. Apical septal, MI mice n = 7, 7 days after LAD ligation, mean ± S.E.M.): 1.55 ± 0.25
- SUV ([1]; segment 14. Apical septal, healthy control mice n = 5, mean ± S.E.M.): 1.82 ± 0.34
- SUV ([1]; segment 15. Apical inferior, MI mice n = 7, 7 days after LAD ligation, mean ± S.E.M.): 1.36 ± 0.35
- SUV ([1]; segment 15. Apical inferior, healthy control mice n = 5, mean ± S.E.M.): 1.67 ± 0.28
- SUV ([1]; segment 16. Apical lateral, MI mice n = 7, 7 days after LAD ligation, mean ± S.E.M.): 0.64 ± 0.24
- SUV ([1]; segment 16. Apical lateral, healthy control mice n = 5, mean ± S.E.M.): 1.60 ± 0.30
- SUV ([1]; segment 17. Apex, MI mice n = 7, 7 days after LAD ligation, mean ± S.E.M.): 0.39 ± 0.17
- SUV ([1]; segment 17. Apex, healthy control mice n = 5, mean ± S.E.M.): 1.47 ± 0.34
Compound: [C-]#[N+]CC(C)(C)OC.[C-]#[N+]CC(C)(C)OC.[C-]#[N+]CC(C)(C)OC.[C-]#[N+]CC(C)(C)OC.[C-]#[N+]CC(C)(C)OC.[C-]#[N+]CC(C)(C)OC.[Tc] [^99mTc-sestamibi]

Compound: oxidised NAc-Cys-Asn-Gly-Arg-Cys-Gly-Gly-Lys-NH2 (disulfide) [cNGR, cyclic(NAc-Cys-Asn-Gly-Arg-Cys-Gly-Gly-Lys), disulfide-cyclised CD13-homing peptide]
- targeting efficacy relative to the linear entity (CD13): tenfold higher
